Here are results for 21 compounds from US8188077B2, “Apoptosis-inducing agents for the treatment of cancer and immune and autoimmune diseases” (Abbott Laboratories, priority 2010, dated 2012).

Structures are written as SMILES. pKi: −log10 of the molar value.

The test has as its target T1, Bcl-2 protein (Homo sapiens, UniProt P10415, DELINS35-91DVEENRTEAPEGTESE, form not given).
T1 construct: fused on or other part: Bcl-xL (Q07817) residues 29-44 stand in place of Bcl-2's own unstructured loop 35-91; The C-terminal membrane anchor (208-239) is absent
The test can be described thus: Bcl-2 fluorescence polarization assay (FPA) binding. The conditions noted are these: 10 nM Bcl-2 protein, 1 nM fluorescein-labeled BAX peptide, room temperature, read-out: Bcl-2 FPA 11pt Ki. The procedure: Assays for the inhibition of Bcl-2 were performed in 96-well microtiter plates. Compounds of the instant invention were diluted in DMSO to concentrations between […] and 10 pM and introduced into each well of the plate. A mixture totaling 125 µL per well of assay buffer (20 mM phosphate buffer (pH 7.4), 1 mM EDTA, 0.05% PF-68), 10 nM of Bcl-2 protein (prepared according to the procedure described in PNAS 2001, 98, 3012-3017), 1 nM fluorescein-labeled BAX peptide (prepared in-house), and the DMSO solution of the compound of the instant invention was shaken for 2 minutes and placed in a LJL Analyst (LJL Bio Systems, CA. Polarization was measured at room temperature using a continuous Fluorescein lamp (excitation 485 nm, emission 530 nm). Ki values were calculated using Microsoft Excel.
(In general: Polarisation of emitted light reports the rotation of a fluorescent probe.)

T1 sequence (P10415 with tags, fused parts or gaps with the stated changes): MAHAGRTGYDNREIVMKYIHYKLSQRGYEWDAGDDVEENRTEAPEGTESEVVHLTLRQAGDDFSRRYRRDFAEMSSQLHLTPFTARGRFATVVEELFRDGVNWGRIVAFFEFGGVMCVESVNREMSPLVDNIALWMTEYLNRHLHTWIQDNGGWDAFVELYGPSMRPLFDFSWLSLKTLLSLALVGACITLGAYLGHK

A word on the pKi: it is the Ki on a negative log10 scale, so that one unit is a factor of ten. As to `C[C@@H]1[C@H]2C[C@@H](C[C@H]1Nc1ccc(S(=O)(=O)NC(=O)c3ccc(N4CCN(Cc5ccccc5-c5ccc(Cl)cc5)CC4)cc3)cc1[N+](=O)[O-])C2(C)C` [Example 1, 4-{4-[(4′-chlorobiphenyl-2-yl)methyl]piperazin-1-yl}-N-[(3-nitro-4-{[(1R,2R,3R,5S)-2,6,6-trimethylbicyclo[3.1.1]hept-3-yl]amino}phenyl)sulfonyl]benzamide], the pKi is 6.76.

Turning to `CC(=O)N(C1CCN(c2ccc(C(=O)NS(=O)(=O)c3ccc(NCC4CCCCC4)c([N+](=O)[O-])c3)cc2)CC1)[C@H]1C[C@H]2C[C@@H]([C@@H]1C)C2(C)C` [Example 2, 4-(4-{acetyl[(1S,2S,3S,5R)-2,6,6-trimethylbicyclo[3.1.1]hept-3-yl]amino}piperidin-1-yl)-N-({4-[(cyclohexylmethyl)amino]-3-nitrophenyl}sulfonyl)benzamide], the pKi is 6.66. Take `C[C@@H]1[C@@H](N(C(=O)c2ccccc2)C2CCN(c3ccc(C(=O)NS(=O)(=O)c4ccc(NCC5CCCCC5)c([N+](=O)[O-])c4)cc3)CC2)C[C@H]2C[C@@H]1C2(C)C` [Example 3, 4-(4-{benzoyl[(1S,2S,3S,5R)-2,6,6-trimethylbicyclo[3.1.1]hept-3-yl]amino}piperidin-1-yl)-N-({4-[(cyclohexylmethyl)amino]-3-nitrophenyl}sulfonyl)benzamide]: the pKi is 7.19.

Turning to `C[C@@H]1[C@@H](Nc2cccc(-c3ccc(C(=O)NS(=O)(=O)c4ccc(NCC5CCCCC5)c([N+](=O)[O-])c4)cc3)c2)C[C@H]2C[C@@H]1C2(C)C` [Example 4, N-({4-[(cyclohexylmethyl)amino]-3-nitrophenyl}sulfonyl)-3′-{[(1S,2S,3S,5R)-2,6,6-trimethylbicyclo[3.1.1]hept-3-yl]amino}biphenyl-4-carboxamide], the negative logarithm of the Ki (pKi) is 6.72. As to `C[C@@H]1[C@@H](N(C(=O)Cc2ccccc2)C2CCN(c3ccc(C(=O)NS(=O)(=O)c4ccc(NCC5CCCCC5)c([N+](=O)[O-])c4)cc3)CC2)C[C@H]2C[C@@H]1C2(C)C` [Example 5, N-({4-[(cyclohexylmethyl)amino]-3-nitrophenyl}sulfonyl)-4-(4-{(phenylacetyl)[(1S,2S,3S,5R)-2,6,6-trimethylbicyclo[3.1.1]hept-3-yl]amino}piperidin-1-yl)benzamide], the pKi is 7.23. On to `C[C@@H]1[C@@H](Nc2ccc(-c3ccc(C(=O)NS(=O)(=O)c4ccc(NCC5CCCCC5)c([N+](=O)[O-])c4)cc3)cc2)C[C@H]2C[C@@H]1C2(C)C` [Example 6, N-({4-[(cyclohexylmethyl)amino]-3-nitrophenyl}sulfonyl)-4′-{[(1S,2S,3S,5R)-2,6,6-trimethylbicyclo[3.1.1]hept-3-yl]amino}biphenyl-4-carboxamide], for which the negative logarithm of the Ki (pKi) is 6.81.

Take `C[C@@H]1[C@@H](N(CCCc2ccccc2)c2ccc(-c3ccc(C(=O)NS(=O)(=O)c4ccc(NCC5CCCCC5)c([N+](=O)[O-])c4)cc3)cc2)C[C@H]2C[C@@H]1C2(C)C` [Example 7, N-({4-[(cyclohexylmethyl)amino]-3-nitrophenyl}sulfonyl)-4′-{(3-phenylpropyl)[(1S,2S,3S,5R)-2,6,6-trimethylbicyclo[3.1.1]hept-3-yl]amino}biphenyl-4-carboxamide]: the pKi was 5.90.

For the compound `O=C(NS(=O)(=O)c1ccc(NCC2CCCCC2)c([N+](=O)[O-])c1)c1ccc(N2CCC3CC2CN3CC23CC4CC(CC(C4)C2)C3)cc1` (stereo not drawn) [Example 8, 4-{6-[adamantan-1-ylmethyl]-2,6-diazabicyclo[3.2.1]oct-2-yl}-N-({4-[(cyclohexylmethyl)amino]-3-nitrophenyl}sulfonyl)benzamide], the pKi was 7.07. Then `C[C@@H]1[C@@H](N(C(=O)CCc2ccccc2)C2CCN(c3ccc(C(=O)NS(=O)(=O)c4ccc(N[C@H](CCN5CCOCC5)CSc5ccccc5)c(S(=O)(=O)C(F)(F)F)c4)cc3)CC2)C[C@H]2C[C@@H]1C2(C)C` [Example 9, N-[(4-{[(2R)-4-(morpholin-4-yl)-1-(phenylthio)butan-2-yl]amino}-3-[(trifluoromethyl)sulfonyl]phenyl)sulfonyl]-4-(4-{(3-phenylpropanoyl)[(1S,2S,3S,5R)-2,6,6-trimethylbicyclo[3.1.1]hept-3-yl]amino}piperidin-1-yl)benzamide], with > 7.70; and `O=C(NS(=O)(=O)c1ccc(N[C@H](CCN2CCOCC2)CSc2ccccc2)c([N+](=O)[O-])c1)c1ccc(N2CCN(CC34CC5CC(CC(C5)C3)C4)CC2)cc1` [Example 10, 4-{4-[adamantan-1-ylmethyl]piperazin-1-yl}-N-[(4-{[(2R)-4-(morpholin-4-yl)-1-(phenylthio)butan-2-yl]amino}-3-nitrophenyl)sulfonyl]benzamide], with > 7.70. Take `O=C(NS(=O)(=O)c1ccc(NCC2CCCCC2)c([N+](=O)[O-])c1)c1ccc(N2C[C@@H]3C[C@H]2CN3CC23CC4CC(CC(C4)C2)C3)cc1` [Example 11, 4-{(1S,4S)-5-[adamantan-1-ylmethyl]-2,5-diazabicyclo[2.2.1]hept-2-yl}-N-({4-[(cyclohexylmethyl)amino]-3-nitrophenyl}sulfonyl)benzamide]: the pKi was 5.88. The result for `CC12CC3CC(Br)(C1)CC(CN1CCN(c4ccc(C(=O)NS(=O)(=O)c5ccc(NCC6CCCCC6)c([N+](=O)[O-])c5)cc4)CC1)(C3)C2` (stereo not drawn) [Example 12, 4-(4-{[3-bromo-5-methyladamantan-1-yl]methyl}piperazin-1-yl)-N-({4-[(cyclohexylmethyl)amino]-3-nitrophenyl}sulfonyl)benzamide] reads 6.52. Consider `CC12CC3CC(C)(C1)CC(CN1CCN(c4ccc(C(=O)NS(=O)(=O)c5ccc(NCC6CCCCC6)c([N+](=O)[O-])c5)cc4)CC1)(C3)C2` [Example 13, N-({4-[(cyclohexylmethyl)amino]-3-nitrophenyl}sulfonyl)-4-(4-{[3,5-dimethyladamantan-1-yl]methyl}piperazin-1-yl)benzamide], for which the pKi is 6.22. For the compound `CC12CC(CN(c3ccc(S(=O)(=O)NC(=O)c4ccc(N5CCN(Cc6ccccc6-c6ccc(Cl)cc6)CC5)cc4)cc3)C1=O)C2` [Example 14, 4-{4-[(4′-chlorobiphenyl-2-yl)methyl]piperazin-1-yl}-N-{[4-(1-methyl-2-oxo-3-azabicyclo[3.1.1]hept-3-yl)phenyl]sulfonyl}benzamide], the pKi is 7.32. Turning to `CC1(C)[C@H]2C=C(c3ccccc3CN3CCN(c4ccc(C(=O)NS(=O)(=O)c5ccc(NCC6CCOCC6)c([N+](=O)[O-])c5)cc4)CC3)[C@]1(C)CC2` [Example 15, N-({3-nitro-4-[(tetrahydro-2H-pyran-4-ylmethyl)amino]phenyl}sulfonyl)-4-(4-{2-[(1R,4R)-1,7,7-trimethylbicyclo[2.2.1]hept-2-en-2-yl]benzyl}piperazin-1-yl)benzamide], the pKi is > 7.70. The result for `O=C(NS(=O)(=O)c1ccc(NCC2CCOCC2)c([N+](=O)[O-])c1)c1ccc(N2CCN(Cc3ccccc3NC3CC4CC3C3CCCC43)CC2)cc1` (stereo not drawn) [Example 16] reads 7.40; that for `C[C@H]1[C@H]2C[C@H](CC2Nc2ccccc2CN2CCN(c3ccc(C(=O)NS(=O)(=O)c4ccc(NCC5CCOCC5)c([N+](=O)[O-])c4)cc3)CC2)C1(C)C` (stereo partly drawn) [Example 17, N-({3-nitro-4-[(tetrahydro-2H-pyran-4-ylmethyl)amino]phenyl}sulfonyl)-4-[4-(2-{[(1R,4R,6S)-5,5,6-trimethylbicyclo[2.2.1]hept-2-yl]amino}benzyl)piperazin-1-yl]benzamide], 7.52; that for `CC1(C)[C@H]2CCC(Nc3ccccc3CN3CCN(c4ccc(C(=O)NS(=O)(=O)c5ccc(NCC6CCOCC6)c([N+](=O)[O-])c5)cc4)CC3)[C@@H]1C2` (stereo partly drawn) [Example 18, 4-[4-(2-{[(1R,5S)-6,6-dimethylbicyclo[3.1.1]hept-2-yl]amino}benzyl)piperazin-1-yl]-N-({3-nitro-4-[(tetrahydro-2H-pyran-4-ylmethyl)amino]phenyl}sulfonyl)benzamide], > 7.70.

Consider `CC1(C)[C@H]2CC(CN3CCN(c4ccc(C(=O)NS(=O)(=O)c5ccc(NCC6CCCCC6)c([N+](=O)[O-])c5)cc4)CC3)=C(c3ccc(Cl)cc3)[C@@H]1C2` [Example 19, 4-(4-{[(1R,5R)-2-(4-chlorophenyl)-6,6-dimethylbicyclo[3.1.1]hept-2-en-3-yl]methyl}piperazin-1-yl)-N-({4-[(cyclohexylmethyl)amino]-3-nitrophenyl}sulfonyl)benzamide], for which the pKi was 6.22.

As for `CC1(C)CCC(NCC2C3CC4CC(C3)CC2C4)C(CN2CCN(c3ccc(C(=O)NS(=O)(=O)c4ccc(NCC5CCOCC5)c([N+](=O)[O-])c4)cc3)CC2)C1` (stereo not drawn) [Example 20, 4-{4-[(2-{[adamantan-2-ylmethyl]amino}-5,5-dimethylcyclohexyl)methyl]piperazin-1-yl}-N-({3-nitro-4-[(tetrahydro-2H-pyran-4-ylmethyl)amino]phenyl}sulfonyl)benzamide], the pKi is < 4.28.

As for `C[C@@H]1[C@@H](NC2CCC(C)(C)CC2CN2CCN(c3ccc(C(=O)NS(=O)(=O)c4ccc(NCC5CCOCC5)c([N+](=O)[O-])c4)cc3)CC2)C[C@@H]2C[C@H]1C2(C)C` (stereo partly drawn) [Example 21, 4-{4-[(5,5-dimethyl-2-{[(1R,2S,3S,5S)-2,6,6-trimethylbicyclo[3.1.1]hept-3-yl]amino}cyclohexyl)methyl]piperazin-1-yl}-N-({3-nitro-4-[(tetrahydro-2H-pyran-4-ylmethyl)amino]phenyl}sulfonyl)benzamide], the pKi is 5.25.
